Test results published in patent US10500197B2, “Use of oligopyridylamides to inhibit mutant p53 amyloid formation and restore its tumor suppressor function” (New York University, priority 2017, dated 2019).
“Also recorded” adds a separate entry of the source. Where no end group is shown, it is not given here.

What was measured:
[1] = test system: MIA PaCa-2 cells (R248W p53 mutant); experiment: MTS cell viability assay in MIA PaCa-2 cells; format: cell-based; conditions: 5 and 10 μM, 24 and 48 hours, serum-free media
Experimental: MIA PaCa-2 (CRL-1420) cells, which contain the R248W p53 contact mutant, were obtained from ATCC and cultured in ATCC-formulated Dulbecco's Modified Eagle's Medium supplemented with 10% fetal bovine serum (FBS), 2.5% horse serum, 4% 200 mM L-glutamine and 1% penicillin/streptomycin. A separate stock of serum-free medium was kept for cell viability assays. Cells were split at a 1:3 ratio 2-3 times a week and maintained at 80% confluence and >85% viability. Viability was regularly measured through Trypan Blue dilution correction during cell counting. Cell cultures were stored at 37° C. in T75 coated flasks and kept under 5% CO2.
MTS assays were performed with Promega CellTiter One MTS solution according to protocol. MIA PaCa-2 Cells were seeded at 2,000 cells/well and were incubated for 24 hours to allow proper adherence to the well. On treatment day, wells were washed with warm PBS and media was replaced with a serum-free version. If treatment peptides were purified from crude form, they were also filtered using a 0.2 µm filter before introduction to cells. On MTS reading day, media was changed again (serum-free) and 20 μL of MTS was added to each 100 μL well. Cells were incubated at 37° C. for 2 hours before reading absorbance at 490 nm using Synergy H1 (BioTek) equipped with Gen5 software.
(§1) MTS assays were performed with Promega CellTiter One MTS solution according to protocol. MIA PaCa-2 cells were seeded at 2,000 cells/well, MCF-7 at 4,000 cells/well, COS-7 at 5,000 cells/well and HeLa at 3,000 cells/well. These values were individually optimized for the assay prior to experimentation. All cells were incubated for 24 hours to allow proper adherence to the well. On treatment day, wells were washed with warm PBS and media was replaced with a serum-free version. If treatment peptides were purified from crude form, they were also filtered using a 0.2 µm filter before introduction to cells. On MTS reading day, media was changed again (serum-free) and 20 μL of MTS was added to each 100 μL well. Cells were incubated at 37° C. for 2 hours before reading absorbance at 490 nm using Synergy H1 (BioTek) equipped with Gen5 software. Background absorbance from control wells was quantified and subtracted from obtained experimental absorbance values.
The two classes of designed peptide inhibitors have been introduced to a cancer cell-line that harbors the R248W p53 mutant, MIA PaCa-29. It has been hypothesized that upon co-localization of the inhibitors with mutant p53, mutant p53 aggregates will be abrogated, resulting in the release of wild-type p53 from cellular inclusions and, eventually, the induction of apoptosis. The 4 designed peptides were introduced to MIA PaCa-2 cells at 5 and 10 μM for 24 and 48 hour incubation periods. MTS assay was used to assess cell viability after treatment, whereby the bio-reduction of the MTS tetrazolium compound results in detectable color change that is proportional to the number of viable cells left in a sample (see Example 1).
MIA PaCa-2 cells were incubated with ADH compounds 17, 27, 31, 37, 39, 40, 41, 45, 46, and 52 (5 and 10 μM) for 24 and 48 hours. Cell viability was determined using the MTS assay.

[2] = test system: MCF-7 cells (wild-type p53); experiment: MTS cell viability in MCF-7 cells; format: cell-based; conditions: 5 and 10 μM, 24 hours, serum-free media
Experimental: as §1
(§2) It has been shown that the ADH compounds have no toxic effect on N2a cells, which carry wild-type p53. Their effect on other wild-type p53 cell lines: MCF-7 and COS-7 was further investigated. Cells were incubated with ADH compounds 17, 27, 40, 41 and 46 for 24 hours at 5 and 10 μM in serum-free media before determining cell viability via MTS (FIG. 2).

[3] = test system: COS-7 cells (wild-type p53); experiment: MTS cell viability in COS-7 cells; format: cell-based; conditions: 5 and 10 μM, 24 hours, serum-free media
Experimental: as §1, §2

R248W mutant p53 peptide = R248W mutant p53 peptide (Homo sapiens, UniProt P04637, R248W); experiment: Thioflavin T (ThT) assay, inhibition of R248W peptide aggregation; format: biochemical; conditions: 1:1 ratio to R248W peptide, 37° C., 10 hours
Experimental: (§3) This fluorescence can be monitored overtime to estimate the increase in beta-sheet structure of incubated peptides, indicating amyloid formation. […] 50 μM ThT was incubated at 37° C. with varying concentrations of peptides and inhibitors to estimate both the aggregation propensity of mutant peptides and the abrogation of aggregation brought about by inhibitor treatment. All samples were sonicated, including the ThT solution, prior to each addition of peptides to ensure the obtainment of clear sigmoidal curves. Fluorescence in transparent-bottom 96-well sample plates was monitored by the cell plate reader Synergy H1 (BioTek).
To test the inhibition efficacy of these peptides, they were subjected to a ThT assay whereby a fixed concentration of R248W was treated with varying concentrations of the respective inhibitor peptide in the presence of ThT dye and buffer. […] It is hypothesized that this effect is due to the relative hydrophobicity of the PAS sequence (FFLIPKG) (FIG. 4B).
10 compounds based on the oligopyridylamide molecular scaffolds have been tested on mutant p53 aggregation models. A ThT assay was used to test the inhibition capability of each compound at a 1:1 ratio to the R248W mutant peptide.

[4] = target: R248W mutant p53 peptide aggregates (Homo sapiens, UniProt P04637, R248W); experiment: Multi-step ThT assay, abrogation of pre-formed R248W aggregates; format: biochemical; conditions: 50 μM R248W incubated 35 minutes at 37° C., then equimolar ADH compound
Experimental: as §3
Accordingly, a multi-step ThT assay was designed that would evaluate the ability of an inhibitor to abrogate aggregation at different stages of amyloid formation. Based on the sigmoidal curve produced in ThT assays of the R248W peptide, 3 time points were selected to introduce the inhibitor to mutant p53 aggregates. The first would occur at 0 mins, where no R248W aggregates would have been previously formed. The second time point would be approximately 30 mins after aggregation begins, during the exponential increase in fluorescence of the R248W ThT sigmoidal curve. The last time point would be during the plateau phase of the curve at approximately 5 hours after initiation of the assay, whereby aggregates reach an equilibrium phase and stabilize in solution.
In order to target p53 aggregation in the cellular environment, the ADH compounds according to the invention would need to bind and abrogate pre-formed p53 aggregates, as well as prevent additional aggregation. Inhibition of pre-formed aggregates would be a crucial feature of therapeutics that successfully target mutant p53 aggregation in cancer. Using the multi-step thioflavin T assay, where the inhibitor is added to R248W at either elongation or the plateau phases of amyloid formation, 50 μM of the R248W peptide was incubated at 37° C. for 35 minutes before adding an equimolar ratio of the ADH compound (FIG. 1).

HeLa cells = experiment: MTS cell viability in HeLa cells; format: cell-based; conditions: 5 or 10 μM, 24 hours, serum-free media
Experimental: as §1
It has been hypothesized that the ADH compounds may bind to wild-type p53 in a manner that preserves its main function, yet disrupts other protein-protein interactions in the cellular environment. HeLa cells are known to have very low p53 expression levels, which is attributed to the expression of the HPV-E6 protein. E6 proteins target p53 for proteasomal degradation via the ubiquitin pathway by binding to p53's core domain (residues 94-292) and C-terminus. Because it has been hypothesized that the effective ADH compounds (40, 41, and 46) target the p53 DNA-binding domain located in its core region, the compounds may prevent E6 binding, leading to p53 accumulation and eventually apoptosis. […] Since ReACp53 is a sequence-specific peptide that targets the p53 DNA-binding domain, it may also prevent E6 binding through a similar mechanism.

For `COC(=O)c1ccc(NC(=O)c2ccc(NC(=O)c3ccc([N+](=O)[O-])c(OCC(=O)O)n3)c(OCc3ccccc3)n2)c(OCC(=O)O)n1` [ADH-17], the “effect of ADH compounds on MIA PaCa-2 cell viability (MTS)” value (“effect of ADH compounds” below) [1] was “non-toxic effects”, the “toxicity in MCF-7 cells (MTS)” value [2] was “No significant toxicity; also recorded: do not induce significant toxicity” and the “toxicity in COS-7 cells (MTS)” value [3] was “No significant toxicity; also recorded: do not induce significant toxicity”.
With `COC(=O)c1ccc(NC(=O)c2ccc(NC(=O)c3ccc([N+](=O)[O-])c(OCc4ccccc4)n3)c(OCC(=O)O)n2)c(OCC(=O)O)n1` [ADH-27] the “toxicity in MCF-7 cells (MTS)” value [2] was “No significant toxicity; also recorded: do not induce significant toxicity” and the “toxicity in COS-7 cells (MTS)” value [3] was “No significant toxicity; also recorded: do not induce significant toxicity”.
In the case of `COC(=O)c1ccc(NC(=O)c2ccc(NC(=O)c3ccc(NC(=O)c4ccc([N+](=O)[O-])c(OCC(C)C)n4)c(OCc4ccccc4)n3)c(OCC(=O)O)n2)c(OCC(=O)O)n1` [ADH-31], the “inhibition of R248W mutant p53 aggregation by ADH compounds (ThT fluorescence)” value (“inhibition” for short) (R248W mutant p53 peptide) is reported as “inhibit mutant p53 aggregation with varying levels of effectiveness”.
For `COC(=O)c1ccc(NC(=O)c2ccc(NC(=O)c3ccc([N+](=O)[O-])c(OCCCN)n3)c(OCc3ccccc3)n2)c(OCCCN)n1` [ADH-37], the “inhibition” value (R248W mutant p53 peptide) was “inhibit mutant p53 aggregation with varying levels of effectiveness”.
For `COC(=O)c1ccc(NC(=O)c2ccc(NC(=O)c3ccc([N+](=O)[O-])c(OC(C)C)n3)c(OCc3ccccc3)n2)c(OCCCN)n1` [ADH-39], the “inhibition” value (R248W mutant p53 peptide) was “inhibit mutant p53 aggregation with varying levels of effectiveness”.
`CCCCOc1nc(C(=O)Nc2ccc(C(=O)Nc3ccc(C(=O)OC)nc3OCCCN)nc2OCCCN)ccc1[N+](=O)[O-]` [ADH-40] was tested, and the “inhibition” value (R248W mutant p53 peptide) was “inhibit mutant p53 aggregation with varying levels of effectiveness”, the “abrogation of R248W aggregates at the elongation phase” value [4] was “abrogate aggregation at the elongation phase; also recorded: able to target and abrogate aggregates at the elongation phase” and the “toxicity in HeLa cells (MTS)” value (HeLa cells) was “Significant toxicity; also recorded: significantly toxic”. For the same molecule, the “effect of ADH compounds” value [1] was “highly significant toxicity; also recorded: extremely significant effect on cell viability”, the “toxicity in MCF-7 cells (MTS)” value [2] was “No significant toxicity; also recorded: do not induce significant toxicity” and the “toxicity in COS-7 cells (MTS)” value [3] was “No significant toxicity; also recorded: do not induce significant toxicity”.
With `COC(=O)c1ccc(NC(=O)c2ccc(NC(=O)c3ccc([N+](=O)[O-])c(OCC(C)C)n3)c(OCCCN)n2)c(OCCCN)n1` [ADH-46] the “inhibition” value (R248W mutant p53 peptide) was “inhibit mutant p53 aggregation with varying levels of effectiveness”, the “abrogation of R248W aggregates at the elongation phase” value [4] was “abrogate aggregation at the elongation phase; also recorded: able to target and abrogate aggregates at the elongation phase” and the “toxicity in HeLa cells (MTS)” value (HeLa cells) was “Significant toxicity; also recorded: significantly toxic”. The “effect of ADH compounds” value [1] was “highly significant toxicity; also recorded: extremely significant effect on cell viability”, the “toxicity in MCF-7 cells (MTS)” value [2] was “No significant toxicity; also recorded: do not induce significant toxicity” and the “toxicity in COS-7 cells (MTS)” value [3] was “No significant toxicity; also recorded: do not induce significant toxicity”.
In the case of “ReACp53: recently developed peptide that targets p53 aggregation, oligoarginine tag, (image prefix) RPILTRITLE (also: oligoarginine tag) [reference compound]”, the “toxicity in HeLa cells (MTS)” value (HeLa cells) is reported as “induce significant toxicity; also recorded: significantly toxic”, the “cytotoxicity of peptides in MIA PaCa-2 cells (MTS)” value [1] is reported as “induce cell death; also recorded: significantly cytotoxic” and the “toxicity in MCF-7 cells (MTS)” value [2] is reported as “No significant toxicity; also recorded: does not appear to induce toxicity”. For the same molecule, the “toxicity in COS-7 cells (MTS)” value [3] was “No significant toxicity; also recorded: does not appear to induce toxicity”.
